Results published in patent US4935434A, “Antiarthritic isoxazole-4-carboxamides” (Bristol-Myers Company, priority 1988, dated 1990).
Like-named read-outs stand apart in the source and are kept apart here.

Tests used:
[1] = tested on: carragenin-induced paw edema; assay: Carrageenin induced paw edema in the rat (CIP); type: in vivo, male Sprague Dawley rats; details: single oral dose 50 mg/kg 30 min. prior to carrageenin, determined 4 hrs. after injection, read-out: CIP % inhib. (reduction in paw volume)
Procedure: B. Carrageenin induced paw edema in the rat.
This test is based on the procedure originally described by Holsapple and Yim (Inflammation, 1984, 8:223). Six male Sprague Dawley rats weighing approx. 300 gm were used in each experimental group. The rats had been starved for 24 hours prior to injection of 0.1 ml of 1% carrageenin into the plantar surface of the left hind paw. Test compounds were dosed orally 30 minutes prior to carrageenin administration. The volumes of the left hind paws were measured by mercury displacement at 2,4, and 6 hours following carrageenin injection. The efficacy of a compound was expressed as the percent inhibition of carrageenin injected paw volume as compared to non-injected paw using the following equation: [formula] The peak of drug effects usually occurred 2-4 hours following carrageenin injection.
^c test compound administered as a single oral dose of 50 mg/kg 30
min. prior to carrageenin injection; % inhibition determined 4 hrs. after
carrageenin injection; I = <25% reduction in paw volume and A =
≥25% reduction in paw volume.

[2] = tested on: adjuvant-induced polyarthritis; assay: Modified developing adjuvant arthritis in rats (adjuvant-induced polyarthritis, AIP); type: in vivo, male Lewis rats; details: Rattus norvegicus, po; for inhibition in vivo at 76 mg/kg: 76 mg/kg once daily p.o. d. 1-8; for inhibition in vivo at 50 mg/kg: 50 mg/kg once daily p.o. d. 1-8; for inhibition in vivo at 89 mg/kg: 89 mg/kg (d. 1-5) once daily p.o.; for inhibition in vivo at 100 mg/kg: 100 mg/kg once daily p.o. d. 1-8
Procedure: A. Modified developing adjuvant arthritis in rats.
This test is based on the procedure originally described by Pearson (Proc. Soc. Biol. Med., 1956, pp 91-5). Each experimental group used six male Lewis rats weighing approx. 250 gm. Arthritis was produced by a single intradermal injection of Mycobacterium butyricum (0.6 mg in 0.1 ml mineral oil) into the base of the tail. Test compounds were administered orally, once daily, starting on the day of inoculation (day 1) through day 8. The initial dosage was reduced during this period when side effects were observed. The paw volume (average of two hind paws) was measured by the mercury displacement method at least twice weekly during the course of the experiment (40 to 42 days). The efficacy of a compound was expressed as the percent reduction of hind paw volume of treated vs. untreated rats using the following equation: [formula]
^a once daily, p.o., from d. 1-8 (unless otherwise specified).
^b % inhibition of paw edema: 0 = <25; + = 25-<40; ++ = 40-<60; +++ =

[3] = 528 h, d. 20-22, read-out: AIP % inhib. (% inhibition of paw edema) d. 20-22
[4] = 1008 h, d. 40-42, read-out: AIP % inhib. (% inhibition of paw edema) d. 40-42

Row | Compound | inhibition in vivo at 50 mg/kg [1] [%] | inhibition in vivo at 50 mg/kg [2, 3] [%] | inhibition in vivo at 50 mg/kg [2, 4] [%] | further results
1 | CC(C)NC(=O)c1cnoc1C1CC1 [Example 1, 5-Cyclopropylisoxazole-4-(N-isopropyl)carboxamide] | < 25 | – | – | inhibition in vivo at 76 mg/kg [2, 3]: 25 to 40%; inhibition in vivo at 76 mg/kg [2, 4]: 40 to 60%
2 | CC(C)(C)NC(=O)c1cnoc1C1CC1 [Example 2, 5-Cyclopropylisoxazole-4-(N-tert-butyl)carboxamide] | < 25 | 40 to 60 | 40 to 60 | –
3 | C#CCNC(=O)c1cnoc1C1CC1 [Example 3, 5-Cyclopropylisoxazole-4-[N-(2-propynyl)]carboxamide] | < 25 | 40 to 60 | 40 to 60 | –
4 | O=C(NC1CC1)c1cnoc1C1CC1 [Example 4, 5-Cyclopropylisoxazole-4-(N-cyclopropyl)carboxamide] | < 25 | – | – | inhibition in vivo at 89 mg/kg [2, 3]: 40 to 60%; inhibition in vivo at 89 mg/kg [2, 4]: 60 to 80%
5 | O=C(Nc1cccc(C(F)(F)F)c1)c1cnoc1C1CC1 [Example 5, 5-Cyclopropylisoxazole-4-carboxylic acid 4-(3-trifluoromethyl)anilide] | ≥ 25 | 40 to 60 | 60 to 80 | –
6 | COc1ccc(NC(=O)c2cnoc2C2CC2)cc1 [Example 6, 5-Cyclopropylisoxazole-4-carboxylic acid (4-methoxy)anilide] | < 25 | – | – | inhibition in vivo at 100 mg/kg [2, 3]: < 25%; inhibition in vivo at 100 mg/kg [2, 4]: 40 to 60%
7 | O=C(Nc1ccc(C(F)(F)F)cc1)c1cnoc1C1CC1 [Example 7, 5-Cyclopropylisoxazole-4-carboxylic acid 4-trifluoromethylanilide] | ≥ 25 | – | – | –
8 | Cc1oncc1C(=O)NCc1ccc(C(F)(F)F)cc1 [Example 8, 5-Methylisoxazole-4-(N-4-trifluoromethylbenzyl)carboxamide] | < 25 | – | – | –
